Measurements published in US4110327A, “2,3 Diketo-piperazinocarbonylamino alkanoic acids and derivatives” (Toyama Chemical Co., Ltd., priority 1974, dated 1978).
In brackets after ≈: the same amount, converted by molar mass.

What was measured:
Proteus morganii = test: MIC against clinical isolates; format: cell-based; conditions: clinical isolate, unit assumed
Escherichia coli = test: MIC against clinical isolates; format: cell-based; conditions: unit assumed
Klebsiella pneumoniae [1] = test: MIC against standard strain, plate method; format: cell-based; conditions: unit assumed
Summary of the method: (§1)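 Agar plate dilution MIC in heart infusion agar, pH 7.4. Inoculum was 10^4 cells per plate, from a suspension of 10^6 cells/ml.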

[2] = tested on: Pseudomonas aeruginosa I.F.O.; test: MIC against standard strain, plate method; format: cell-based; conditions: unit assumed
Summary of the method: as §1

Proteus vulgaris 3027 = test: MIC against standard strain, plate method; format: cell-based; conditions: Proteus vulgaris 3027, standard strain; unit assumed
Summary of the method: as §1

[3] = tested on: Staphylococcus aureus 209p; test: MIC against standard strain, plate method; format: cell-based; conditions: unit assumed
Summary of the method: as §1

Proteus mirabilis = test: MIC against clinical isolates; format: cell-based; conditions: clinical isolate, unit assumed
Klebsiella pneumoniae [4] = test: MIC against clinical isolates; format: cell-based; conditions: unit assumed
Pseudomonas aeruginosa = test: MIC against clinical isolates; format: cell-based; conditions: unit assumed
Proteus vulgaris = test: MIC against clinical isolates; format: cell-based; conditions: clinical isolate, unit assumed
Staphylococcus aureus = test: MIC against clinical isolates; format: cell-based; conditions: unit assumed
β-lactamase = test: Resistant activity against β-lactamase, iodometric assay; format: biochemical, Pseudomonas aeruginosa GN 238; conditions: relative to Potassium Penicillin G = 100
Method: (3) Resistant activity against β-lactamase, Pseudomonas aergionan GN 238:
The resistant activity of each compound against β-lactamase was measured in the manner described below.
β-Lactamase was prepared from Pseudomonas aeruginosa GN 238. This microorganism was cultured in 100 ml of a medium containing 2 g of yeast extract, 10 g of polypeptone, 2 g of glucose, 7 g of disodium hydrogen phosphate, 2 g of potassium dihydrogen phosphate, 1.2 g of ammonium sulfate and 0.4 g of magnesium sulfate, per liter, in a 500-ml Erlenmeyer flask for 6 hrs. at 37° C with shaking. The resulting cells were collected by centrifugation (5,000 r.p.m. × 10 min.), washed three times with 0.1 M phosphate buffer (pH 7.0). Subsequently, the cells were subjected to sonication (20 KHz, 20 min.) and then centrifuged at 15,000 r.p.m. for 60 min. By using the supernatant of enzyme fluid, the resistance of each compound against β-lactamase was determined by the iodometric assay method. Each numeral shown in Table 7 is a relative activity value calculated by assuming as 100 the activity of the control Potassium Penicillin G.

Proteus rettgeri = test: MIC against clinical isolates; format: cell-based; conditions: clinical isolate, unit assumed
Escherichia coli NIHJ = test: MIC against standard strain, plate method; format: cell-based; conditions: unit assumed
Summary of the method: as §1

Salmonella typhi-murium = test: MIC against clinical isolates; format: cell-based; conditions: unit assumed
Shigella flexneri = test: MIC against clinical isolates; format: cell-based; conditions: unit assumed
Method: (§2) The minimum inhibitory concentrations (MIC) was determined by the plate method disclosed in "Chemotherapy" (Japan), Vol. 16, (1968), pages 98 - 99. The culture medium used was a Heart infusion agar (pH 7.4). The number of the cells per plate used in the inoculum as 10^4 (10^6 cells/ml).
(§3) MIC was determined in the same manner as in the preceding paragraph (1).

Shigella sonnei = test: MIC against clinical isolates; format: cell-based; conditions: unit assumed
Method: as §2, §3

Salmonella typhi = test: MIC against clinical isolates; format: cell-based; conditions: unit assumed
[5] = clinical isolate GN (number not given; Table 5-3)

## CC1(C)S[C@@H]2[C@H](NC(=O)C(c3ccccc3)S(=O)(=O)O)C(=O)N2[C@H]1C(=O)O (some centres unmarked) [Sodium Sulbenicillin, SodiumSulbenicillin, reference compound]
Proteus morganii
  MIC: < 0.4 µg/mL
Escherichia coli; clinical isolate GN 3452
  MIC: 12.5 µg/mL
Escherichia coli; clinical isolate GN 3465
  MIC: > 200 µg/mL
Escherichia coli; clinical isolate GN 3481
  MIC: 12.5 µg/mL
Escherichia coli; clinical isolate GN 3611
  MIC: > 200 µg/mL
Escherichia coli; clinical isolate K-2
  MIC: 12.5 µg/mL
Escherichia coli; clinical isolate K-3
  MIC: > 200 µg/mL
Klebsiella pneumoniae [1]
  MIC: > 200 µg/mL
[2]
  MIC: 50 µg/mL
Proteus vulgaris 3027
  MIC: 0.79 µg/mL
[3]
  MIC: 3.13 µg/mL
Proteus mirabilis
  MIC: 0.79 µg/mL
Klebsiella pneumoniae [4]; clinical isolate GN 917
  MIC: > 200 µg/mL
Klebsiella pneumoniae [4]; clinical isolate GN 3850
  MIC: > 200 µg/mL
Klebsiella pneumoniae [4]; clinical isolate GN 4081
  MIC: > 200 µg/mL
Klebsiella pneumoniae [4]; clinical isolate GN 4117
  MIC: > 200 µg/mL
Pseudomonas aeruginosa; clinical isolate GN 82
  MIC: 50 µg/mL
Pseudomonas aeruginosa; clinical isolate GN 163
  MIC: 50 µg/mL
Pseudomonas aeruginosa; clinical isolate GN 221
  MIC: 25 µg/mL
Pseudomonas aeruginosa; clinical isolate GN 376
  MIC: 50 µg/mL
Pseudomonas aeruginosa; clinical isolate GN 383
  MIC: 50 µg/mL
Pseudomonas aeruginosa; clinical isolate GN 1035
  MIC: 100 µg/mL
Pseudomonas aeruginosa; clinical isolate GN 1091
  MIC: 50 µg/mL
Pseudomonas aeruginosa; clinical isolate GN 2565
  MIC: 100 µg/mL
Pseudomonas aeruginosa; clinical isolate GN 2987
  MIC: 25 µg/mL
Pseudomonas aeruginosa; [5]
  MIC: 50 µg/mL
Pseudomonas aeruginosa; clinical isolate S-1
  MIC: 100 µg/mL
Pseudomonas aeruginosa; clinical isolate S-2
  MIC: 100 µg/mL
Pseudomonas aeruginosa; clinical isolate S-3
  MIC: 100 µg/mL
Pseudomonas aeruginosa; clinical isolate S-4
  MIC: 100 µg/mL
Proteus vulgaris
  MIC: < 0.4 µg/mL
Staphylococcus aureus; clinical isolate F-2
  MIC: 3.13 µg/mL
Staphylococcus aureus; clinical isolate F-5
  MIC: > 200 µg/mL
Staphylococcus aureus; clinical isolate MS 8588
  MIC: 3.13 µg/mL
Staphylococcus aureus; clinical isolate MS 8596
  MIC: 3.13 µg/mL
Staphylococcus aureus; clinical isolate MS 8619
  MIC: 3.13 µg/mL
Staphylococcus aureus; clinical isolate MS 8684
  MIC: 3.13 µg/mL
Staphylococcus aureus; clinical isolate MS 8713
  MIC: 3.13 µg/mL
β-lactamase
  Relative activity: 50%
Proteus rettgeri
  MIC: > 200 µg/mL

## CCCCCCCCN1CCN(C(=O)N[C@@H](C(=O)N[C@@H]2C(=O)N3[C@@H]2SC(C)(C)[C@@H]3C(=O)O)c2ccccc2)CC1=O [compound 30]
Proteus morganii
  MIC: 3.13 µg/mL (≈ 5.33 µM)
Escherichia coli; clinical isolate GN 3435
  MIC: 12.5 µg/mL (≈ 21.3 µM)
Escherichia coli; clinical isolate GN 3452
  MIC: 25 µg/mL (≈ 42.5 µM)
Escherichia coli; clinical isolate GN 3465
  MIC: 50 µg/mL (≈ 85.1 µM)
Escherichia coli; clinical isolate GN 3481
  MIC: 25 µg/mL (≈ 42.5 µM)
Escherichia coli; clinical isolate GN 3611
  MIC: > 200 µg/mL
Escherichia coli; clinical isolate K-1
  MIC: 12.5 µg/mL (≈ 21.3 µM)
Escherichia coli; clinical isolate K-2
  MIC: 25 µg/mL (≈ 42.5 µM)
Escherichia coli; clinical isolate K-3
  MIC: > 200 µg/mL
Escherichia coli; clinical isolate K-4
  MIC: 12.5 µg/mL (≈ 21.3 µM)
Klebsiella pneumoniae [1]
  MIC: 6.25 µg/mL (≈ 10.6 µM)
Escherichia coli NIHJ
  MIC: < 1.57 µg/mL
[2]
  MIC: 25 µg/mL (≈ 42.5 µM)
Proteus vulgaris 3027
  MIC: 3.13 µg/mL (≈ 5.33 µM)
[3]
  MIC: < 1.57 µg/mL
Proteus mirabilis
  MIC: 3.13 µg/mL (≈ 5.33 µM)
Klebsiella pneumoniae [4]; clinical isolate GN 917
  MIC: 25 µg/mL (≈ 42.5 µM)
Klebsiella pneumoniae [4]; clinical isolate GN 3850
  MIC: 25 µg/mL (≈ 42.5 µM)
Klebsiella pneumoniae [4]; clinical isolate GN 4081
  MIC: 100 µg/mL (≈ 170 µM)
Klebsiella pneumoniae [4]; clinical isolate GN 4117
  MIC: 100 µg/mL (≈ 170 µM)
Pseudomonas aeruginosa; clinical isolate GN 82
  MIC: 25 µg/mL (≈ 42.5 µM)
Pseudomonas aeruginosa; clinical isolate GN 163
  MIC: 25 µg/mL (≈ 42.5 µM)
Pseudomonas aeruginosa; clinical isolate GN 221
  MIC: 50 µg/mL (≈ 85.1 µM)
Pseudomonas aeruginosa; clinical isolate GN 376
  MIC: 50 µg/mL (≈ 85.1 µM)
Pseudomonas aeruginosa; clinical isolate GN 383
  MIC: 50 µg/mL (≈ 85.1 µM)
Pseudomonas aeruginosa; clinical isolate GN 1035
  MIC: 50 µg/mL (≈ 85.1 µM)
Pseudomonas aeruginosa; clinical isolate GN 1091
  MIC: 25 µg/mL (≈ 42.5 µM)
Pseudomonas aeruginosa; clinical isolate GN 2565
  MIC: 50 µg/mL (≈ 85.1 µM)
Pseudomonas aeruginosa; clinical isolate GN 2987
  MIC: 12.5 µg/mL (≈ 21.3 µM)
Pseudomonas aeruginosa; [5]
  MIC: 50 µg/mL (≈ 85.1 µM)
Pseudomonas aeruginosa; clinical isolate S-1
  MIC: 50 µg/mL (≈ 85.1 µM)
Pseudomonas aeruginosa; clinical isolate S-2
  MIC: 50 µg/mL (≈ 85.1 µM)
Pseudomonas aeruginosa; clinical isolate S-3
  MIC: 100 µg/mL (≈ 170 µM)
Pseudomonas aeruginosa; clinical isolate S-4
  MIC: 50 µg/mL (≈ 85.1 µM)
Proteus vulgaris
  MIC: 3.13 µg/mL (≈ 5.33 µM)
Staphylococcus aureus; clinical isolate F-1
  MIC: 3.13 µg/mL (≈ 5.33 µM)
Staphylococcus aureus; clinical isolate F-2
  MIC: 0.79 µg/mL (≈ 1.34 µM)
Staphylococcus aureus; clinical isolate F-3
  MIC: 0.79 µg/mL (≈ 1.34 µM)
Staphylococcus aureus; clinical isolate F-4
  MIC: 3.13 µg/mL (≈ 5.33 µM)
Staphylococcus aureus; clinical isolate F-5
  MIC: 100 µg/mL (≈ 170 µM)
Staphylococcus aureus; clinical isolate MS 8588
  MIC: 1.57 µg/mL (≈ 2.67 µM)
Staphylococcus aureus; clinical isolate MS 8596
  MIC: 1.57 µg/mL (≈ 2.67 µM)
Staphylococcus aureus; clinical isolate MS 8619
  MIC: < 0.4 µg/mL
Staphylococcus aureus; clinical isolate MS 8684
  MIC: 1.57 µg/mL (≈ 2.67 µM)
Staphylococcus aureus; clinical isolate MS 8713
  MIC: 1.57 µg/mL (≈ 2.67 µM)
β-lactamase
  Relative activity: 3%
Proteus rettgeri
  MIC: 12.5 µg/mL (≈ 21.3 µM)

## CC(C)N1CCN(C(=O)N[C@@H](C(=O)N[C@@H]2C(=O)N3[C@@H]2SC(C)(C)[C@@H]3C(=O)O)c2ccccc2)C(=O)C1=O (single isomer, unassigned) [compound 40]
Salmonella typhi-murium; clinical isolate SL 858
  MIC: 6.25 µg/mL (≈ 11.8 µM)
Salmonella typhi-murium; clinical isolate SL 2136
  MIC: > 200 µg/mL
Proteus morganii
  MIC: 0.79 µg/mL (≈ 1.49 µM)
Shigella flexneri; clinical isolate JS 11215
  MIC: 50 µg/mL (≈ 94.1 µM)
Shigella flexneri; clinical isolate JS 11839
  MIC: 3.13 µg/mL (≈ 5.89 µM)
Shigella sonnei; clinical isolate JS 11232
  MIC: 50 µg/mL (≈ 94.1 µM)
Shigella sonnei; clinical isolate JS 11755
  MIC: 3.13 µg/mL (≈ 5.89 µM)
Salmonella typhi; clinical isolate SL 819
  MIC: 1.57 µg/mL (≈ 2.95 µM)
Salmonella typhi; clinical isolate SL 2169
  MIC: 1.57 µg/mL (≈ 2.95 µM)
Escherichia coli; clinical isolate GN 3435
  MIC: 0.79 µg/mL (≈ 1.49 µM)
Escherichia coli; clinical isolate GN 3465
  MIC: 50 µg/mL (≈ 94.1 µM)
Escherichia coli; clinical isolate GN 3611
  MIC: > 200 µg/mL
Escherichia coli; clinical isolate K-2
  MIC: 3.13 µg/mL (≈ 5.89 µM)
Escherichia coli; clinical isolate K-3
  MIC: > 200 µg/mL
Escherichia coli; clinical isolate K-4
  MIC: 0.79 µg/mL (≈ 1.49 µM)
Klebsiella pneumoniae [1]
  MIC: 3.13 µg/mL (≈ 5.89 µM)
Escherichia coli NIHJ
  MIC: < 0.1 µg/mL
Proteus vulgaris 3027
  MIC: 0.4 µg/mL (≈ 0.752 µM)
[3]
  MIC: 0.4 µg/mL (≈ 0.752 µM)
Proteus mirabilis
  MIC: < 0.4 µg/mL
Klebsiella pneumoniae [4]; clinical isolate GN 3850
  MIC: 12.5 µg/mL (≈ 23.5 µM)
Klebsiella pneumoniae [4]; clinical isolate GN 4081
  MIC: 100 µg/mL (≈ 188 µM)
Klebsiella pneumoniae [4]; clinical isolate GN 4117
  MIC: 50 µg/mL (≈ 94.1 µM)
Pseudomonas aeruginosa; clinical isolate GN 376
  MIC: 3.13 µg/mL (≈ 5.89 µM)
Pseudomonas aeruginosa; clinical isolate GN 1035
  MIC: 25 µg/mL (≈ 47 µM)
Pseudomonas aeruginosa; clinical isolate GN 2565
  MIC: 12.5 µg/mL (≈ 23.5 µM)
Pseudomonas aeruginosa; clinical isolate GN 2987
  MIC: 3.13 µg/mL (≈ 5.89 µM)
Pseudomonas aeruginosa; clinical isolate S-1
  MIC: 12.5 µg/mL (≈ 23.5 µM)
Pseudomonas aeruginosa; clinical isolate S-2
  MIC: 25 µg/mL (≈ 47 µM)
Pseudomonas aeruginosa; clinical isolate S-3
  MIC: 25 µg/mL (≈ 47 µM)
Pseudomonas aeruginosa; clinical isolate S-4
  MIC: 12.5 µg/mL (≈ 23.5 µM)
Proteus vulgaris
  MIC: < 0.4 µg/mL
Staphylococcus aureus; clinical isolate F-2
  MIC: 3.13 µg/mL (≈ 5.89 µM)
Staphylococcus aureus; clinical isolate F-3
  MIC: 0.79 µg/mL (≈ 1.49 µM)
Staphylococcus aureus; clinical isolate F-5
  MIC: > 200 µg/mL
Staphylococcus aureus; clinical isolate MS 8588
  MIC: 3.13 µg/mL (≈ 5.89 µM)
Staphylococcus aureus; clinical isolate MS 8596
  MIC: 3.13 µg/mL (≈ 5.89 µM)
Staphylococcus aureus; clinical isolate MS 8619
  MIC: 0.79 µg/mL (≈ 1.49 µM)
Staphylococcus aureus; clinical isolate MS 8684
  MIC: 3.13 µg/mL (≈ 5.89 µM)
Staphylococcus aureus; clinical isolate MS 8713
  MIC: 12.5 µg/mL (≈ 23.5 µM)
β-lactamase
  Relative activity: 15%
